Measurements taken from paper PMC8034593 (The FEBS journal, 2020).

Target: KanJ (kanamycin B dioxygenase) (Streptomyces kanamyceticus, UniProt Q6L732)
Experiment: isothermal titration calorimetry
Assay type: binding

Sequence of KanJ (kanamycin B dioxygenase) (Q6L732 whole entry): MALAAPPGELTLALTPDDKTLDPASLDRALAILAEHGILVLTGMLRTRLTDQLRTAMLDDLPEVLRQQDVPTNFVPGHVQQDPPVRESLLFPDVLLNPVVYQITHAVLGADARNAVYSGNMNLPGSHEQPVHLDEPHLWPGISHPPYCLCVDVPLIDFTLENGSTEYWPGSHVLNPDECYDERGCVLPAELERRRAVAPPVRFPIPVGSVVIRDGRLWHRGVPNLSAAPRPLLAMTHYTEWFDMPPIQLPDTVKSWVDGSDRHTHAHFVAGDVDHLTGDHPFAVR

Kd: 1540 nM
SMILES: NC[C@H]1O[C@H](O[C@H]2[C@H](O)[C@@H](O[C@H]3O[C@H](CO)[C@@H](O)[C@H](N)[C@H]3O)[C@H](N)C[C@@H]2N)[C@H](N)[C@@H](O)[C@@H]1O [KAN, kanamycin B]
